# Source: patent publication US11351134B2, “Small molecule agents, compositions, and formulations, for internal use, displaying inhibitory activity against gram-positive and/or gram-negative organisms” (NATUREZA, INC., priority 2017, dated 2022)
# Where two headings read alike, the source gives them in different places.
# Key:
# [1] = test system: Staphylococcus aureus (including MRSA strains); assay: Broth microdilution (CLSI M07) of active component mixed with water only; format: cell-based; conditions: active component mixed with water only (miscible state); about 0.0009 wt. % to about 8 wt. %
# Experimental: (§1) Initially, to determine basic characteristics, each active component was separately mixed, generally under agitated conditions, with water, and each was miscible with water. Each, after being mixed with water, was tested in a broth microdilution assay, against a variety of bacteria using amounts of the each of the lauric acid derivatives, ranging from about 0.0009 wt. % to about 8 wt. %. The bacteria included Escherichia coli, and Staphylococcus aureus (including MRSA strains). The minimum inhibitory concentration (MIC) needed to prevent growth of the target bacteria was evaluated based on a method published by Clinical Laboratory Standards Institute (CLSI), broth microdilution method M-07 (M07). […] Each of the samples containing one of the lauric acid derivatives was compared with a positive control, decanoic acid.
# [2] = test system: Escherichia coli; assay: as above; format: cell-based; conditions: active component mixed with water only (miscible state); about 0.0009 wt. % to about 8 wt. %
# Experimental: as §1
# [3] = test system: S. epidermidis; assay: Broth microdilution MIC of lecithin/chitosan particle compositions; format: cell-based; conditions: Staphylococcus epidermidis; lecithin/chitosan particle composition; prep. mixture pH 5 or pH 7; maximum concentration tested 10 mg/ml; read-out: MIC (mg/ml) for S. epidermidis (chitosan prep. mixture was at pH 5 or at pH 7)
# Experimental: as §1
# (§2) For TABLES 1 to 3, compositions were generally prepared as described above, and as further outlined in this paragraph. For these examples, the active component, as a lauric acid derivative or lauric acid, was suspended in an organic solvent, chloroform, and then mixed with water, under robust agitation. The amount of water to the amount of chloroform was at least about 2:1, and could be as high as 10:1. Chloroform was then evaporated (e.g., under vacuum using a freeze dryer). After removal of the chloroform, a 2.2% lecithin solution in an acetate buffer (e.g., 98 mM acetic acid and 2 mM sodium acetate) was prepared and added, so the final amount of the active component was about 1 part active component mixture and about 9 parts of the 2.2% lecithin solution. Of course, it is noted that other ranges to achieve final amount of the active component as described above (e.g., active component mixture and lecithin solution) may also be utilized. Cholesterol could also be optionally added. The mixture of lecithin and the active component was mixed and sonicated, and then a solution of about 1.5% chitosan was added. Thereafter, the entirety of the mixture containing the lecithin and the active component was further blended, in which a final ratio was about 1 part active component to about 9 parts of the 2.2% lecithin solution to about 10 parts of the 1.5% chitosan solution. The pH was then varied, to a pH of 5, or a pH of 7, or a pH of 9. In some mixtures having a pH of 7, a chemical agent imparting a positive charge to the chitosan was included in a form of glycol chitosan. In these tests, the chemical agent used was glycol. In these examples, the amount of chemical agent, glycol was about one molecule glycol moiety to one molecule chitosan sacharide unit; higher amounts of glycol moieties are also acceptable, while lower amounts of glycol moieties were often found to decrease overall inhibitory activity associated with a composition when formed and tested in vitro. It is noted that negatively charged chitosan containing particles were prepared. […] After mixing, the mixtures could each be filtered through a […] filter. In some tests, the mixtures were sonicated before filtering. Sonication produced small particles. In some studies, particles were freeze dried as a powder (generally, after mixing, sonicating and filtering).
# (§3) The positive controls were prepared and evaluated in a similar manner. All prepared samples were tested using a broth microdilution test.
# [4] = test system: E. coli; assay: as above; format: cell-based; conditions: maximum concentration tested 10 mg/ml; for MIC: Escherichia coli
# Experimental: as §1, §2, §3
# [5] = test system: Gram-positive pathogens and Gram-negative pathogens; assay: In vitro inhibitory activity of chitosan- or carrier-containing particles; format: cell-based; conditions: synthesis (with chitosan) at pH 7 with positively charged chitosan
# Description: as §2, §3
# This also occurs when the chitosan- or carrier-containing particle includes an active component that has a log P value that is less than 4 and includes a methyl and/or ethyl side chain (e.g., 12-amino-1-dodecanoic acid methyl ester). […]
# [6] = format: in vivo; conditions: mice, oral capsules approximately 4 mg active component in chitosan-containing particles, three times per day for seven days
# Description: Laboratory trials have shown that no resistance has developed in pathogens exposed to the compositions described herein, even with long term, repeated exposure (data not shown). In addition, no intrinsic resistance can or has been detected in target pathogens. […] A placebo group is also included, in which a group of 10 mice are given a placebo set of capsules, orally, three times per day and continued for seven days, each of the placebo set of capsules containing similarly prepared chitosan-containing particles without an active component, the preparation being generally as described herein. Initial mice have been infected with Salmonella typhimurium prior to oral delivery of one of the set of capsules. The capsules may be vegetable capsules. The capsules may have an enteric coating. For delivery, a formulation may be prepared in a manner understood in the relevant art. For delivery, a formulation may be in at least any one or more of the following forms: liquid, capsule, dried powder, mist, and the like. For delivery, the formulation will contain pharmaceutical grade materials, including one or more excipients and or fillers for internal and/or topical delivery in sufficient amounts known to those of skill in the relevant art. Flavors, colors, sugars, sugar-substitutes, and the like may also be included in any of the formulations, as is understood to those of skill in the relevant art.
smiles,measurement,setting,value
COC(=O)CCCCCCCCCCCN.Cl [12-amino-1-dodecanoic acid methyl ester HCl],"Inhibitory activity against Gram-positive bacteria (e.g., S. aureus)",[1],"does not, in the miscible state, demonstrate inhibitory activity"
same,"Inhibitory activity against Gram-negative bacteria (e.g., E. coli)",[2],"does not, in the miscible state, demonstrate inhibitory activity"
same,MIC,[3],10 mg/mL
same,MIC,"[4]; lecithin/chitosan particle composition, prep. mixture pH 9, read-out: MIC (mg/ml) for E. coli (chitosan prep. mixture was at pH 9)",10 mg/mL
same,MIC,"[4]; lecithin/glycol chitosan particle composition, prep. mixture pH 7, read-out: MIC (mg/ml) for E. coli (chitosan prep. mixture was at pH 7 with glycol chitosan)",0.8 mg/mL
same,MIC (mg/ml) for E. coli (chitosan prep. mixture was at pH 5 or at pH 7),"[4]; lecithin/chitosan particle composition, prep. mixture pH 5 or pH 7",— (no inhibitory activity)
same,Inhibitory activity against both Gram-positive pathogens and Gram-negative pathogens,[5],stronger inhibitory activity as well as broad spectrum activity
same,Safety in animal trials,[6],no safety concerns
